According to article PMC9202104 (BMC Biology, 2022):
Like-named read-outs stand apart in the source and are kept apart here.

How the values were obtained:
[1] = tested on: ZIKV human strain PLCal_ZV; assay: Plaque assay, inhibition of ZIKV infection (strain PLCal_ZV); type: cell-based; conditions: Zika virus, Vero C1008; plaque assay, Vero E6 cells, human strain; read-out: IC50 PLCal_ZV
Experimental: (§1) After removal of the unbound compounds by centrifugation (after addition of 3% PEG-6000), ZIKV was incubated with Vero E6 cells in 24-well plates at 37°C for 1 h. The cells were then washed with PBS, overlaid with DMEM containing 1% carboxymethyl cellulose and 2% FBS, and cultured at 37°C for 4–5 days, followed by being stained with 0.5% crystal violet. […] Plaques in each well were calculated, and IC50 of compounds for each compound was calculated using the CalcuSyn computer program.

ZIKV EDIII protein = molecular target: T1, ZIKV EDIII protein (Zika virus, UniProt A0A024B7W1); assay: SPR binding to ZIKV EDIII
T1 construct: EDIII (residues 298-409 in E protein containing a C-terminal human Fc tag); human Fc (C)
Experimental: (§2) (GE Healthcare, Port Washington, NY, USA). Briefly, ZIKV EDIII protein or NS2B-NS3 protein was immobilized on a sensor chip (CM5) using the Amine Coupling Kit (GE Healthcare). Serially diluted ST087010 was added as analytes, and HBS-EP with 10% DMSO (10 mM HEPES, 150 mM NaCl, 3 mM EDTA, 0.05% Tween-20, 10% DMSO, pH 7.4) was used as a running buffer. Biacore BK evaluation software (version 1.1) was applied to analyze the data, and the curve was fitted with a 1:1 binding model.

[2] = tested on: ZIKV human strain PRVABC59; assay: Plaque assay, inhibition of ZIKV infection (strain PRVABC59); type: cell-based; conditions: Zika virus, Vero C1008; plaque assay, Vero E6 cells, human strain; read-out: IC50 PRVABC59
Experimental: as §1

[3] = tested on: ZIKV human strain R116265; assay: Plaque assay, inhibition of ZIKV infection (strain R116265); type: cell-based; conditions: Zika virus, Vero C1008, Vero E6 cells
Experimental: as §1

[4] = tested on: ZIKV human strain PAN2016 (2016/Panama); assay: Plaque assay, inhibition of ZIKV infection (strain PAN2016)
Experimental: as §1

DENV-2-V594 = assay: Plaque assay, inhibition of DENV-2 infection in LLC-MK2 cells; type: cell-based; conditions: Dengue virus, DENV2
[5] = tested on: ZIKV human strain PAN2015; assay: Plaque assay, inhibition of ZIKV infection (strain PAN2015); type: cell-based; conditions: Zika virus, Vero C1008, Vero E6 cells
Experimental: as §1

[6] = tested on: ZIKV human strain PAN2016; assay: ZIKV challenge in adult Ifnar1−/− mice, tissue viral titers and immunofluorescence; type: in vivo; conditions: 5 dpi
Experimental: (§3) Briefly, 7–8-week-old male mice were used, and two separate experiments were performed. […] These mice were i.p. infected with ZIKV (human strain R103451, 200 PFU/mouse) and observed daily for weight changes and survival until 21 dpi. […] Five days later, these mice were sacrificed, and their tissues, including the heart, testis, eye, kidney, and brain, were collected for detection of viral titers by plaque assay, or apoptosis by immunofluorescence staining. Mice losing 20% of initial weight with severe symptoms, including hind limb weakness and paralysis, or 25% of initial weight, were humanely euthanized with an overdose isoflurane in a Bell Jar, followed by cervical dislocation.
Plaque assay was used to detect viral titers in ZIKV-infected tissues. Briefly, tissues were homogenized with cold culture medium (DMEM + 2% FBS) and then centrifuged (2000 g at 4°C for 10 min). Supernatants were serially diluted to infect Vero E6 cells in 24-well plates. ZIKV titers in tissues were measured from ~40 mg of samples; thus, the detection limit was about 25 PFU/g of tissues.
Immunofluorescence staining was carried out to detect ZIKV and caspase-3 signals in ZIKV-infected mouse tissues. Briefly, tissues were fixed in 4% formaldehyde, embedded in paraffin, and sectioned. The tissue sections were deparaffinized, fixed, and permed using the FIX and PERM Cell Permeabilization Kit (Thermo Fisher Scientific, Waltham, MA, USA). After blocking with 5% BSA, the tissue slides were incubated at 37°C 2 h with ZIKV EDIII-specific human mAb (ZV-67, 1:100, Absolute Antibody, Boston, MA, USA), or rabbit anti-active caspase-3 antibody (1:100, Abcam). The slides were washed with PBS and incubated for 30 min with anti-human FITC antibody (1:100, for ZIKV), or anti-rabbit Alexa Fluor 647 antibody (1:100, for caspase-3). The slides were then counterstained for nuclei, using DAPI (300 nM, Thermo Fisher Scientific, Waltham, MA, USA) for 5 min, and mounted in VectaMount Permanent Mounting Medium (Vector Laboratories, CA, USA). The slides were analyzed using a confocal microscope (Zeiss LSM 880) and ZEN software, and fluorescent signals were quantified by ImageJ software.

[7] = tested on: ZIKV human strain R103451; assay: Lethal ZIKV challenge in adult Ifnar1−/− mice, survival and weight; type: in vivo
Experimental: as §3

[8] = tested on: ZIKV rhesus macaque strain MR 766; assay: Plaque assay, inhibition of ZIKV infection (strain MR 766); type: cell-based; conditions: Zika virus, Vero C1008; plaque assay, Vero E6 cells, rhesus strain; read-out: IC50 MR 766
Experimental: as §1

ZIKV NS2B-NS3 protein = molecular target: T2, ZIKV NS2B-NS3 protein (Zika virus, UniProt Q32ZE1); assay: SPR binding to ZIKV NS2B-NS3
T2 construct: fused with the genes encoding NS3 protein (residues 1-185) through a linker (Gly4-Thr-Gly4); His6 (C); made in house; host or cells: E. coli
Experimental: as §2

[9] = Safety profile in pregnant Ifnar1−/− mice and pups; type: in vivo
Experimental: Briefly, groups of 5 pregnant mice (8–12-week-old, E12-14) were i.p. injected with ST087010 (20 or 40 mg/kg of body weight, 200 μl/mouse), or DMSO (negative control), daily for 4 continuous days.

in vitro = type: cell-based; conditions: rhesus monkey
Experimental: Briefly, compounds at 2-fold serial dilutions were added to the respective cells (2.0×10^4/well) pre-seeded in 96-well plates. The cells were cultured at 37°C in the presence of 5% CO2 for 3 days, […] incubated with CCK8 solution, followed by measurement of absorbance at 450 nm (A450 value), using a microplate reader (Infinite F200PRO, Tecan, Morrisville, NC, USA). CC50 of compounds was calculated using the CalcuSyn program.

[10] = tested on: ZIKV human strain R103451; assay: Plaque assay, inhibition of ZIKV infection (strain R103451); type: cell-based; conditions: Zika virus, Vero C1008; plaque assay, Vero E6 cells, human strain; read-out: IC50 R103451
Experimental: as §1

T1 sequence (A0A024B7W1 588-699): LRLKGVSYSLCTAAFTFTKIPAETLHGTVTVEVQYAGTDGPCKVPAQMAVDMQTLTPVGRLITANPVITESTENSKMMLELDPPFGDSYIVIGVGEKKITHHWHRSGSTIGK
T2 sequence (Q32ZE1 1499-1683, added parts left off, change not shown): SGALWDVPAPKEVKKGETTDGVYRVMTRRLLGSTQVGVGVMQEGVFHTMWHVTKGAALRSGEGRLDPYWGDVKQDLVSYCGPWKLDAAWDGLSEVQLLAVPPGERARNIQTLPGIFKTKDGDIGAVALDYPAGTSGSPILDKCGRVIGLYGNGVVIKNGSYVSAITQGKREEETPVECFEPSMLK

Cc1cc2c(C(C)C)c(O)c(O)c(/C=N/n3c(=O)[nH][nH]c3=O)c2c(O)c1-c1c(C)cc2c(C(C)C)c(O)c(O)c(/C=N/n3c(=O)[nH][nH]c3=O)c2c1O [ST087010] gave an IC50 [1] of 2.2 µM, a Kd (ZIKV EDIII protein) of 4.95 µM and an IC50 [2] of 2.4 µM. For the same compound, the IC50 [3] was 2.9 µM, the “SI (CC50/IC50)” value ([4]; CC50 Vero E6 / IC50 ZIKV PAN2016) was 15.63 and the IC50 ([4]; Zika virus, Vero C1008, in Homo sapiens, read-out: IC50 against infection of ZIKV PAN2016, plaque assay, Vero E6 cells) was 3.2 µM. It also gave an IC50 ([4]; read-out: IC50 against infection of ZIKV PAN2016, plaque assay, Vero E6 cells) of 3.17 ± 0.18 µM, an IC50 (DENV-2-V594) of 3.19 ± 0.01 µM and an IC50 [5] of 3.5 µM. The “Viral titers in the heart, testis, eye, kidney, and brain” value ([6]; 20 mg/kg i.p., ZIKV PAN2016 200 PFU, compared to gossypol or DMSO-treated mice) was “significantly reduced”, the “ZIKV+ signals in eye and testis tissues” value ([6]; immunofluorescence) was “undetectable” and the “Caspase-3 staining in eye and testis tissues” value ([6]; immunofluorescence, compared to DMSO) was “undetectable, or diminished”. The “Mice protected from death (survival)” value ([7]; 20 mg/kg i.p. 12 h before and 6, 24, 48 h post-infection, ZIKV R103451 200 PFU, observed 21 days) was 50%, the Weight loss ([7]; 20 mg/kg i.p., ZIKV R103451 200 PFU, ST087010 figure during 6–12 dpi) was “less than 25%” and the “Body weight relative to weight before the virus infection” value ([7]; 20 mg/kg i.p., ZIKV R103451, until 21 dpi) was 85%. For the same compound, the IC50 [8] was 3.5 µM, the Kd (ZIKV NS2B-NS3 protein) was 19.9 µM and the “Histopathology of liver, spleen, kidney, and brain of mothers and pups” value ([9]; 20 or 40 mg/kg, compared to DMSO) was “did not present pathological changes”. The “Inflammation or cell infiltration in tissues” value ([9]; low and high doses (20 and 40 mg/kg)) was “no inflammation or cell infiltration”, the “Serum ALT and creatinine levels vs DMSO” value ([9]; pregnant mice, 20 mg/kg, 1 day after injection) was “no significant difference” and the “Serum ALT and creatinine levels” value ([9]; pregnant mice, 20 or 40 mg/kg, before injection and 4 h, 3 or 5 days after last injection) was “no significant differences”. The CC50 at 3 days (in vitro) was 47.2 ± 1.35 µM and the IC50 [10] was 3.6 µM.
